This is an account of results in patent US20250179078A1, “INHIBITORS OF NLRP3” (PTC THERAPEUTICS, INC., priority 2022, published 2025).

SMILES strings stand for the structures. Bounds are passed on as bounds.

The assay deals with T1, NLRP3 (Homo sapiens, UniProt Q96P20).
T1 construct: host or cells: THP-1 cells differentiated with PMA
T1 sequence (Q96P20 whole entry): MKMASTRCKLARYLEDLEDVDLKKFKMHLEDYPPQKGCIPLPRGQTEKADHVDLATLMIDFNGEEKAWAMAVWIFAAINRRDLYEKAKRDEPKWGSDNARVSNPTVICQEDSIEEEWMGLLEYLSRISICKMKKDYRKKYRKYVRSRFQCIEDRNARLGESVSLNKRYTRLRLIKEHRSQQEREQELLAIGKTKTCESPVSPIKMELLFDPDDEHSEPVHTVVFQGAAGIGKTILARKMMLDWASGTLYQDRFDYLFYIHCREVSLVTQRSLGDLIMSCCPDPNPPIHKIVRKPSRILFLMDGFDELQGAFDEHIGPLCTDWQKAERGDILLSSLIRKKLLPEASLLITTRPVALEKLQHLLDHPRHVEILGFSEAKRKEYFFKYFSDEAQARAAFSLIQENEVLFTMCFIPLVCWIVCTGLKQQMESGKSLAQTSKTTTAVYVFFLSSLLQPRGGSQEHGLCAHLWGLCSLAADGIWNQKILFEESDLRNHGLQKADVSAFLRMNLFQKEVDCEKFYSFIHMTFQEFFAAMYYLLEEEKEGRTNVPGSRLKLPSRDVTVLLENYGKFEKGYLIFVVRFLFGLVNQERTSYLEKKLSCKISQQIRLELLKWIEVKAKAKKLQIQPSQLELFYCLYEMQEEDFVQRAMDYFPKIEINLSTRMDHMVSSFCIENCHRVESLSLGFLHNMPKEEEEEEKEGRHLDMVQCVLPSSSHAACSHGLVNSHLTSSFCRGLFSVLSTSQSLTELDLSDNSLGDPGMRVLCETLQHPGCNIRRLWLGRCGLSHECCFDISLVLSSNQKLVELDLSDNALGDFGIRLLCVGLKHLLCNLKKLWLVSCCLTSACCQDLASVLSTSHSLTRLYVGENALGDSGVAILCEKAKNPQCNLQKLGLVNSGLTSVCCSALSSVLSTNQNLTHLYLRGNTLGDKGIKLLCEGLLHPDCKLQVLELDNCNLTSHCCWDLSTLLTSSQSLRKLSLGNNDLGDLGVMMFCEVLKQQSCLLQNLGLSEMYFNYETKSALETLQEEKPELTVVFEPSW
Put plainly: IL-1β Secretion Assay (NLRP3-dependent IL1β secretion in THP1 cells). Type of assay: cell-based. The note with it: PMA-differentiated THP-1 cells; compounds incubated 20 h; 2.5 μM Nigericin 3 h; HTRF IL-1β readout; read-out: IC50 IL-1β Inhibition. In short, it runs like this:
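THP-1 cells differentiated with 100 ng/mL PMA for 24 h, then given compound (7-point 3-fold series, 1:200 from DMSO) for 20 h in RPMI+5% FBS. NLRP3 activated with 2.5 μM nigericin for 3 h; secreted IL-1β measured by HTRF; IC50 from logistic fit of % inhibition.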
As to `COc1ccc(-c2nnc(N[C@@H]3CCCN(C)C3)n3cncc23)c(CC(F)(F)F)c1` [Compound 250, 1-[4-methoxy-2-(2,2,2-trifluoroethyl)phenyl]-N-[(3R)-1-methylpiperidin-3-yl]imidazo[1,5-d][1,2,4]triazin-4-amine], the IC50 was < 0.001 µM.
In the case of `Cc1cc2c(-c3ccc(C(F)(F)F)cc3OC(F)(F)F)nnc(N[C@H]3C[C@@](C)(O)C3)n2n1` [Compound 3, (1s,3s)-1-methyl-3-({2-methyl-4-[2-(trifluoromethoxy)-4-(trifluoromethyl)phenyl]pyrazolo[1,5-d][1,2,4]triazin-7-yl}amino)cyclobutan-1-ol], the IC50 is 0.001 to 0.01 µM.
Regarding `Cc1ccc(-c2nnc(NC(C)c3cccc(O)c3)n3cncc23)c(CC(F)(F)F)c1` (stereo not shown) [Compound 297, 3-[1-({1-[4-methyl-2-(2,2,2-trifluoroethyl)phenyl]imidazo[1,5-d][1,2,4]triazin-4-yl}amino)ethyl]phenol], the IC50 was 0.001 to 0.01 µM.
For `C[C@]1(O)C[C@@H](Nc2nnc(-c3ccc(C(F)(F)F)cc3OC(F)(F)F)c3cccn23)C1` [Compound 123, (1s,3s)-1-methyl-3-({1-[2-(trifluoromethoxy)-4-(trifluoromethyl)phenyl]pyrrolo[1,2-d][1,2,4]triazin-4-yl}amino)cyclobutan-1-ol], the IC50 was in the range of 0.001 to 0.01 µM.
Regarding `CN1CCC[C@@H](Nc2nnc(-c3ccc(C(F)(F)F)cc3F)c3cccn23)C1` [Compound 19, 1-[2-fluoro-4-(trifluoromethyl)phenyl]-N-[(3R)-1-methylpiperidin-3-yl]pyrrolo[1,2-d][1,2,4]triazin-4-amine], the 50% inhibitory concentration (IC50) fell in the range of 0.01 to 0.1 µM.
In the case of `CCN1CC[C@@H](O)[C@@H](Nc2nnc(-c3ccc(OC(F)F)cc3OC(F)(F)F)c3cccn23)C1` [Compound 171, (3S,4R)-3-({1-[4-(difluoromethoxy)-2-(trifluoromethoxy)phenyl]pyrrolo[1,2-d][1,2,4]triazin-4-yl}amino)-1-ethylpiperidin-4-ol], the IC50 was < 0.001 µM.
The value for `COc1ccc(-c2nnc(NC3CCOCC3)n3cccc23)c(OC(F)(F)F)c1` [Compound 67, 1-[4-methoxy-2-(trifluoromethoxy)phenyl]-N-(oxan-4-yl)pyrrolo[1,2-d][1,2,4]triazin-4-amine] was 0.001 to 0.01 µM; that for `COc1ccc(-c2nnc(NCc3ncco3)n3cccc23)c(OC(F)(F)F)c1` [Compound 91, 1-[4-methoxy-2-(trifluoromethoxy)phenyl]-N-[(1,3-oxazol-2-yl)methyl]pyrrolo[1,2-d][1,2,4]triazin-4-amine] was 0.01 to 0.1 µM.
The value for `C[C@]1(O)C[C@@H](Nc2nnc(-c3ccc(C(F)(F)F)cc3OC(F)(F)F)c3ccnn23)C1` [Compound 397, (1s,3s)-1-methyl-3-({4-[2-(trifluoromethoxy)-4-(trifluoromethyl)phenyl]pyrazolo[1,5-d][1,2,4]triazin-7-yl}amino)cyclobutan-1-ol] was 0.001 to 0.01 µM.
Regarding `COc1ccc(-c2nnc(N[C@@H]3CCCN(CCO)C3)n3ccc(F)c23)c(C(F)(F)F)c1` [Compound 18, 2-[(3R)-3-({8-fluoro-1-[4-methoxy-2-(trifluoromethyl)phenyl]pyrrolo[1,2-d][1,2,4]triazin-4-yl}amino)piperidin-1-yl]ethan-1-ol], the IC50 was in the range of 0.001 to 0.01 µM.
Consider `COc1ccc(-c2nnc(N[C@@H]3CCOC[C@H]3O)n3cncc23)c(OC(F)F)c1` [Compound 268, (3S,4R)-4-({1-[2-(difluoromethoxy)-4-methoxyphenyl]imidazo[1,5-d][1,2,4]triazin-4-yl}amino)oxan-3-ol], for which the IC50 is 0.001 to 0.01 µM.
Take `CCN1CCC[C@@H](Nc2nnc(-c3ccc(C(F)(F)F)cc3OCF)c3cccn23)C1` [Compound 169, N-[(3R)-1-ethylpiperidin-3-yl]-1-[2-(fluoromethoxy)-4-(trifluoromethyl)phenyl]pyrrolo[1,2-d][1,2,4]triazin-4-amine]: the IC50 was < 0.001 µM.
The value for `CCN1CCC[C@@H](Nc2nnc(-c3ccc(OC)c(OC)c3OC)c3cc(C)nn23)C1` [Compound 370, N-[(3R)-1-ethylpiperidin-3-yl]-2-methyl-4-(2,3,4-trimethoxyphenyl)pyrazolo[1,5-d][1,2,4]triazin-7-amine] was 0.01 to 0.1 µM; that for `O[C@@H]1COCC[C@H]1Nc1nnc(-c2ccc(C(F)(F)F)cc2C(F)(F)F)c2cncn12` [Compound 273, (3S,4R)-4-({1-[2,4-bis(trifluoromethyl)phenyl]imidazo[1,5-d][1,2,4]triazin-4-yl}amino)oxan-3-ol] was 0.001 to 0.01 µM; that for `OCCN1CCC[C@@H](Nc2nnc(-c3ccc(C(F)(F)F)cc3OC(F)F)c3c(F)ccn23)C1` [Compound 15] was 0.001 to 0.01 µM.
On to `O[C@H]1CCCC[C@@H]1Nc1nnc(-c2ccc(C(F)(F)F)cc2CC(F)(F)F)c2cccn12` [Compound 111, (1S,2S)-2-({1-[2-(2,2,2-trifluoroethyl)-4-(trifluoromethyl)phenyl]pyrrolo[1,2-d][1,2,4]triazin-4-yl}amino)cyclohexan-1-ol], for which the IC50 was 0.001 to 0.01 µM.
Consider `COc1ccc(-c2nnc(NC[C@H]3CCCO3)n3cccc23)c(OC(F)(F)F)c1` [Compound 73, 1-[4-methoxy-2-(trifluoromethoxy)phenyl]-N-{[(2R)-oxolan-2-yl]methyl}pyrrolo[1,2-d][1,2,4]triazin-4-amine], for which the 50% inhibitory concentration (IC50) fell in the range of 0.01 to 0.1 µM.
For `O[C@@H]1CCCC[C@H](Nc2nnc(-c3ccc(C(F)(F)F)cc3CC(F)(F)F)c3cccn23)C1.O[C@H]1CCCC[C@@H](Nc2nnc(-c3ccc(C(F)(F)F)cc3CC(F)(F)F)c3cccn23)C1` [Compound 128, (1S,3R)-3-({1-[2-(2,2,2-trifluoroethyl)-4-(trifluoromethyl)phenyl]pyrrolo[1,2-d][1,2,4]triazin-4-yl}amino)cycloheptan-1-ol AND (1R,3S)-3-({1-[2-(2,2,2-trifluoroethyl)-4-(trifluoromethyl)phenyl]pyrrolo[1,2-d][1,2,4]triazin-4-yl}amino)cycloheptan-1-ol], the IC50 was 0.001 to 0.01 µM.
Consider `Cc1cc2c(-c3ccc(Cl)cc3C(F)F)nnc(N[C@@H]3CCCN(C)C3)n2c1` [Compound 11, 1-[4-chloro-2-(difluoromethyl)phenyl]-7-methyl-N-[(3R)-1-methylpiperidin-3-yl]pyrrolo[1,2-d][1,2,4]triazin-4-amine], for which the IC50 fell in the range of 0.01 to 0.1 µM.
Consider `COc1ccc(-c2nnc(NC3CCNC3=O)n3cncc23)c(OC(F)(F)F)c1` (stereo not shown) [Compound 284, 3-({1-[4-methoxy-2-(trifluoromethoxy)phenyl]imidazo[1,5-d][1,2,4]triazin-4-yl}amino)pyrrolidin-2-one], for which the IC50 is 0.01 to 0.1 µM.
Regarding `COc1ccc(-c2nnc(N[C@@H]3CCCN(CCO)C3)n3cncc23)c(C(F)(F)F)c1` [Compound 213, 2-[(3R)-3-({1-[4-methoxy-2-(trifluoromethyl)phenyl]imidazo[1,5-d][1,2,4]triazin-4-yl}amino)piperidin-1-yl]ethan-1-ol], the IC50 fell in the range of 0.001 to 0.01 µM.
As to `COc1ccc(-c2nnc(N[C@@H]3CCCN(CCO)C3)n3cncc23)c(OC(F)F)c1` [Compound 225, 2-[(3R)-3-({1-[2-(difluoromethoxy)-4-methoxyphenyl]imidazo[1,5-d][1,2,4]triazin-4-yl}amino)piperidin-1-yl]ethan-1-ol], the 50% inhibitory concentration (IC50) fell in the range of 0.001 to 0.01 µM.
As to `C[C@]1(O)C[C@@H](Nc2nnc(-c3ccc(C(F)(F)F)cc3CC(F)(F)F)c3cccn23)C1` [Compound 41, (1s,3s)-1-methyl-3-({1-[2-(2,2,2-trifluoroethyl)-4-(trifluoromethyl)phenyl]pyrrolo[1,2-d][1,2,4]triazin-4-yl}amino)cyclobutan-1-ol], the IC50 fell in the range of 0.001 to 0.01 µM.
The value for `C[C@]1(O)C[C@@H](Nc2nnc(-c3ccc(OC(F)F)cc3OC(F)(F)F)c3cccn23)C1` [Compound 88, (1s,3s)-3-({1-[4-(difluoromethoxy)-2-(trifluoromethoxy)phenyl]pyrrolo[1,2-d][1,2,4]triazin-4-yl}amino)-1-methylcyclobutan-1-ol] was 0.001 to 0.01 µM; that for `C[C@]1(O)C[C@@H](Nc2nnc(-c3ccc(C(F)(F)F)cc3C3CC3)c3cncn23)C1` [Compound 399, (1s,3s)-3-({1-[2-cyclopropyl-4-(trifluoromethyl)phenyl]imidazo[1,5-d][1,2,4]triazin-4-yl}amino)-1-methylcyclobutan-1-ol] was 0.001 to 0.01 µM.
For `C[C@]1(O)C[C@@H](Nc2nnc(-c3ccc(Cl)cc3OC(F)F)c3cncn23)C1` [Compound 194, (1s,3s)-3-({1-[4-chloro-2-(difluoromethoxy)phenyl]imidazo[1,5-d][1,2,4]triazin-4-yl}amino)-1-methylcyclobutan-1-ol], the IC50 lay within 0.001 to 0.01 µM.
The value for `O[C@@H]1COCC[C@H]1Nc1nnc(-c2ccc(C(F)(F)F)cc2OC(F)(F)F)c2cncn12` [Compound 322, (3S,4R)-4-({1-[2-(trifluoromethoxy)-4-(trifluoromethyl)phenyl]imidazo[1,5-d][1,2,4]triazin-4-yl}amino)oxan-3-ol] was 0.01 to 0.1 µM; that for `COc1ccc(-c2nnc(NC3CCNC3=O)n3cc(C)cc23)c(OC(F)(F)F)c1` (stereo not shown) [Compound 162, 3-({1-[4-methoxy-2-(trifluoromethoxy)phenyl]-7-methylpyrrolo[1,2-d][1,2,4]triazin-4-yl}amino)pyrrolidin-2-one] was 0.001 to 0.01 µM; that for `Oc1cccc(CNc2nnc(-c3ccc(C(F)(F)F)cc3OC(F)F)c3cccn23)c1` [Compound 101, 3-[{{1-[2-(difluoromethoxy)-4-(trifluoromethyl)phenyl]pyrrolo[1,2-d][1,2,4]triazin-4-yl}amino)methyl]phenol] was 0.001 to 0.01 µM.
Regarding `COc1ccc(-c2nnc(N[C@H]3CCCC[C@@H]3O)n3cc(C)cc23)c(OC(F)(F)F)c1` [Compound 133, (1S,2S)-2-({1-[4-methoxy-2-(trifluoromethoxy)phenyl]-7-methylpyrrolo[1,2-d][1,2,4]triazin-4-yl}amino)cyclohexan-1-ol], the IC50 was 0.01 to 0.1 µM.
Turning to `COc1ccc(-c2nnc(N[C@H]3CCCC[C@]3(C)O)n3cccc23)c(OC(F)(F)F)c1` (single isomer, unassigned) [Compound 180], the IC50 is 0.001 to 0.01 µM.
